What all share (test): DTP human tumour cell line panel, 48 h
Experiment [1] relates to SK-MEL-28.
Experiment [2] deals with U-251.
Experiment [3] has as its system NCI-H226.
Experiment [4] relates to SK-MEL-2.
Experiment [5] concerns ACHN.
For experiment [6], the system named is MOLT-4.
Experiment [7] concerns SR.
Experiment [8] concerns EKVX.
The test system of experiment [9] is SF-539.
Experiment [10] concerns SK-MEL-5.
The test system of experiment [11] is KM12.
Experiment [12] relates to SN12C.
Experiment [13] has as its system NCI-H23.
Experiment [14] relates to HCC 2998.
For experiment [15], the system named is K562.

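Cultured in 96-well plates, cells were exposed to test compound for 48 hours across five concentrations. At the GI50, growth is halved.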 The source made the active and inactive calls. No stated cut-off is given here; in the data, active = GI50 up to about 1.1 µM and inactive = higher. A value given as a limit tells only on which side of the number the result lay.

As to `COc1ccc(/C=N/C23CC4CC(CC(C4)C2)C3)cc1`, the GI50 in experiment [1], in experiment [2], in experiment [3], in experiment [4], in experiment [5] and in experiment [6] was > 100 µM (inactive) throughout. Moreover, the GI50 in [7], in experiment [8], in experiment [9], in experiment [10], in experiment [11] and in experiment [12] was > 100 µM (inactive) in each case. In addition, the GI50 in [13], in [14] and in experiment [15] was > 100 µM (inactive) each time.

For `COC(OC)c1cccc2c1C(=O)CCC1(O)c3ccccc3C1C2` (centres undefined), the GI50 (commonly the concentration giving 50% growth inhibition) in experiment [1] is > 100 µM (inactive); in experiment [3] it was 83.8 µM (inactive); in [4], > 100 µM (inactive); in experiment [6], 65.5 µM (inactive); in experiment [7], > 100 µM (inactive); in experiment [8], > 100 µM (inactive). Moreover, the GI50 in [9] was > 100 µM (inactive); in [10] it was > 100 µM (inactive); in experiment [11], 74 µM (inactive); in [12], > 100 µM (inactive); in experiment [13], 78.9 µM (inactive); in [14], > 100 µM (inactive). For the same compound, the GI50 in experiment [15] is 55.5 µM (inactive).

In the case of `CCOC(=O)NN1C(=O)C(=P(c2ccccc2)(c2ccccc2)c2ccccc2)C(C(=O)OC)=C1C`, the GI50 in experiment [2], in [3], in experiment [4], in experiment [5], in [6] and in experiment [7] was > 100 µM (inactive) in each case. The GI50 in experiment [8], in experiment [9], in [10], in experiment [11], in experiment [12] and in experiment [13] was > 100 µM (inactive) throughout. In addition, the GI50 in experiment [14] and in experiment [15] was > 100 µM (inactive) in each case.

`[N-]=[N+]=NC(c1cn(C2CC(O)C(CO)O2)c(=O)[nH]c1=O)C(Br)I` (centres undefined): the GI50 in experiment [1], in experiment [2], in experiment [3], in [4], in [5] and in experiment [6] was > 100 µM (inactive) each time. Besides, the GI50 in [7], in experiment [8], in experiment [9], in experiment [10], in experiment [11] and in [12] was > 100 µM (inactive) in each case. The GI50 in experiment [13], in experiment [14] and in [15] was > 100 µM (inactive) throughout.

In the case of `C[C@]12CCC3c4ccc(OC(=O)c5ccccc5)cc4CC[C@H]3C1CC[C@@H]2OC(=O)C12OC1CCC2=O` (some centres undefined), the GI50 was 6.11 µM (inactive) in experiment [1]; 2.8 µM (inactive) in [2]; 14.9 µM (inactive) in [3]; 7.94 µM (inactive) in experiment [4]; 5.27 µM (inactive) in experiment [5]; 2.32 µM (inactive) in [6]. Besides, the GI50 in experiment [7] was 3.31 µM (inactive); in experiment [8] it was 6.61 µM (inactive); in experiment [9], 2.34 µM (inactive); in [10], 4.69 µM (inactive); in [11], 6.93 µM (inactive); in [12], 5.9 µM (inactive). In addition, the GI50 in experiment [13] is 4.73 µM (inactive); in experiment [14], 23.7 µM (inactive); in experiment [15] it was 2.07 µM (inactive).

`CCOC(=O)N1CCc2cc(OC)c(OC)cc2/C1=C\c1ccc(OC)c(OC)c1`: the GI50 was 33.3 µM (inactive) in experiment [1]; 30.3 µM (inactive) in [2]; 23.4 µM (inactive) in experiment [3]; 12.1 µM (inactive) in [4]; 26.3 µM (inactive) in experiment [5]; 27.7 µM (inactive) in experiment [6]. Besides, the GI50 in [7] is 29.1 µM (inactive); in [8], 28.1 µM (inactive); in experiment [9], 23.2 µM (inactive); in experiment [11], 29.6 µM (inactive); in experiment [12] it was 26.4 µM (inactive); in experiment [13], 39 µM (inactive). The GI50 in [14] is 33.3 µM (inactive); in [15], > 10 µM (inactive).

For the compound `CCCCC#COS(=O)(=O)c1ccc(C)cc1`, the GI50 in experiment [2] was 86.5 µM (inactive); in [3] it was 14.7 µM (inactive); in [4] it was > 100 µM (inactive); in [5], 71.1 µM (inactive); in experiment [6], 88.1 µM (inactive); in experiment [7], 53 µM (inactive). In addition, the GI50 in [8] was 56.6 µM (inactive); in experiment [9], > 100 µM (inactive); in experiment [10], > 100 µM (inactive); in experiment [11] it was 84.9 µM (inactive); in experiment [12], > 100 µM (inactive); in experiment [13] it was 92.9 µM (inactive). Also, the GI50 in experiment [14] was > 100 µM (inactive); in experiment [15], 45.3 µM (inactive).

For the compound `O=C(c1ccccc1)c1c(CC(O)c2ccccn2)n(C(=O)c2ccccc2)c2ccccc12` (centres undefined), the GI50 in experiment [1] was 20.4 µM (inactive); in experiment [2], 25.1 µM (inactive); in experiment [3], 20.5 µM (inactive); in [4], 14.9 µM (inactive); in experiment [5] it was 26.7 µM (inactive); in experiment [6], 17.1 µM (inactive). For the same compound, the GI50 was 15.1 µM (inactive) in experiment [7]; 16.7 µM (inactive) in experiment [9]; 13.9 µM (inactive) in experiment [10]; 28.4 µM (inactive) in [11]; 22.1 µM (inactive) in experiment [13]; 31.5 µM (inactive) in [14]. Also, the GI50 in experiment [15] was 27.9 µM (inactive).

Take `CCCCN(CCCC)C(=O)C(=O)CC(=O)/C=C/c1ccccc1`: the GI50 in experiment [1], in experiment [2], in [3], in [4], in experiment [5] and in [6] was > 100 µM (inactive) each time. Moreover, the GI50 in experiment [7], in experiment [8], in experiment [9], in experiment [10], in [11] and in [12] was > 100 µM (inactive) each time. The GI50 in [13], in [14] and in experiment [15] was > 100 µM (inactive) each time.

With `CC1(C)CCc2cc3c(cc2O1)OCCC3=O`, the GI50 in experiment [2] was > 100 µM (inactive); in experiment [3], > 100 µM (inactive); in experiment [5] it was > 100 µM (inactive); in experiment [6] it was > 100 µM (inactive); in experiment [7] it was 58.1 µM (inactive); in experiment [8] it was > 100 µM (inactive). The GI50 in experiment [9], in experiment [10], in experiment [11], in experiment [12], in experiment [13] and in [14] was > 100 µM (inactive) in each case. Besides, the GI50 in experiment [15] was > 100 µM (inactive).

As for `C=C1C[C@]23C[C@@]1(O)CC[C@H]2[C@@]12C=C[C@H](O)[C@@](C)(C(=O)O1)[C@H]2[C@@H]3C(=O)O` [GIBBERELLIN A3], the GI50 in [1], in experiment [2], in experiment [3], in experiment [4], in experiment [6] and in [7] was > 100 µM (inactive) each time. Moreover, the GI50 in experiment [8], in experiment [9], in experiment [10], in experiment [11], in [12] and in experiment [13] was > 100 µM (inactive) throughout. The GI50 in experiment [14] and in [15] was > 100 µM (inactive) each time.

As for `CCOc1ccc(NC(=O)/C(=C\c2ccc(C)cc2)C(C)=O)cc1`, the GI50 in experiment [1], in experiment [2], in [3], in [4], in experiment [5] and in experiment [6] was > 100 µM (inactive) in each case. For the same compound, the GI50 is < 0.01 µM (active) in experiment [7]; > 100 µM (inactive) in [8]; > 100 µM (inactive) in experiment [9]; > 100 µM (inactive) in [10]; > 100 µM (inactive) in experiment [12]; > 100 µM (inactive) in [13]. The GI50 in experiment [14] and in experiment [15] was > 100 µM (inactive) in each case.

For the compound `CC(C)C.C[N+](C)(C)C.OC(c1ccccc1)(C(F)(F)F)C(F)(F)F.OC(c1ccccc1)(C(F)(F)F)C(F)(F)F.[SiH3-]`, the GI50 is 12.4 µM (inactive) in experiment [1]; 2.07 µM (inactive) in experiment [2]; 1.02 µM (active) in experiment [3]; 9.1 µM (inactive) in experiment [4]; 8.51 µM (inactive) in experiment [5]; 1.73 µM (inactive) in experiment [6]. The GI50 in experiment [7] was 2.09 µM (inactive); in [8], 3.73 µM (inactive); in experiment [9], 2.51 µM (inactive); in experiment [10] it was 10.4 µM (inactive); in experiment [11], 3.92 µM (inactive); in experiment [12], 5.68 µM (inactive). The GI50 is 3.25 µM (inactive) in experiment [13], 3.56 µM (inactive) in experiment [14] and 3.89 µM (inactive) in [15].
